Laboratory results taken from patent publication US11096939B2, “KRAS G12C inhibitors and methods of using the same” (Amgen Inc., priority 2018, dated 2021).
Read-outs that look alike come from different tables or passages of the source.

Columns and labels:
[1] = biological target: GDP-bound KRAS protein (aa 1-169), containing both G12C and C118A amino acid substitutions (Homo sapiens, UniProt P01116, C118A/G12C); assay: Coupled nucleotide exchange assay (SOS-mediated, AlphaScreen); type: biochemical; details: compound pre-incubation either 5 min or 2 hours (not stated per value); SOS and GTP added, cRAF AlphaScreen readout
Procedure: Coupled Nucleotide Exchange Assay:
Following compound pre-incubation, purified SOS protein (aa 564-1049) and GTP (Roche 10106399001) were added to the assay wells and incubated for an additional 30 min (for 5 min compound pre-incubation) or 1 hour (for 2 hour compound pre-incubation). To determine the extent of inhibition of SOS-mediated nucleotide exchange, purified GST-tagged cRAF (aa 1-149), nickel chelate AlphaLISA acceptor beads (PerkinElmer AL108R), and AlphaScreen glutathione donor beads (PerkinElmer 6765302) were added to the assay wells and incubated for 10 minutes. The assay plates were then read on a PerkinElmer EnVision Multilabel Reader, using AlphaScreen® technology, and data were analyzed using a 4-parameter logistic model to calculate IC50 values.

[2] = system: Phosphorylation of ERK1/2 in MIA PaCa-2 cells; assay: Phospho-ERK1/2 MSD assay; type: cell-based; details: compound 2 or 4 hours, 10 ng/mL EGF for 10 min, read-out: p-ERK IC50 (MIA-PaCa-2)
Procedure: Phospho-ERK1/2 MSD Assay:
MIA PaCa-2 (ATCC® CRL-1420™)-cells were cultured in RPMI 1640 Medium (ThermoFisher Scientific 11875093) containing 10% fetal bovine serum (ThermoFisher Scientific 16000044) and 1× penicillin-streptomycin-glutamine (ThermoFisher Scientific 10378016). Sixteen hours prior to compound treatment, MIA PaCa-2 cells were seeded in 96-well cell culture plates at a density of 25,000 cells/well and incubated at 37° C., 5% CO2. A compound dose-response titration was diluted in growth media, added to appropriate wells of a cell culture plate, and then incubated at 37° C., 5% CO2 for 2 or 4 hours. Following compound treatment, cells were stimulated with 10 ng/mL EGF (Roche 11376454001) for 10 min, washed with ice-cold Dulbecco's phosphate-buffered saline, no Ca^2+ or Mg^2+ (ThermoFisher Scientific 14190144), and then lysed in RIPA buffer (50 mM Tris-HC pH 7.5, 1% Igepal, 0.5% sodium deoxycholate, 150 mM NaCl, and 0.5% sodium dodecyl sulfate) containing protease inhibitors (Roche 4693132001) and phosphatase inhibitors (Roche 4906837001). Phosphorylation of ERK1/2 in compound-treated lysates was assayed using Phospho-ERK1/2 Whole Cell Lysate kits (Meso Scale Discovery KI51DWD) according to the manufacturer's protocol. Assay plates were read on a Meso Scale Discovery Sector Imager 6000, and data were analyzed using a 4-parameter logistic model to calculate IC50 values.

[3] = Homo sapiens, MIA PaCa-2, MIA PaCa-2 cells

Chain of GDP-bound KRAS protein (aa 1-169), containing both G12C and C118A amino acid substitutions (P01116 1-169 isoform P01116-2 G12C/C118A): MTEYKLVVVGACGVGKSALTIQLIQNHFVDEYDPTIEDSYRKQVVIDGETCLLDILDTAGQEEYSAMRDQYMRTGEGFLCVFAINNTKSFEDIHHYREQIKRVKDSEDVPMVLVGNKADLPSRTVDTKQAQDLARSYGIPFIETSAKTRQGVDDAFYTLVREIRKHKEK

SMILES | Coupled Exchange IC50 [1] [µM] | IC50 ([2]; MIA PaCa-2 cells) [µM] | IC50 [2, 3] [µM]
C=CC(=O)N1CCN(C2=NC(=O)C(C)(CC(C)C)c3nc(-c4ccccc4F)c(Cl)cc32)[C@@H](C)C1 (stereo partly drawn) [Example 3-1, 5-((S)-4-Acryloyl-2-methylpiperazin-1-yl)-3-chloro-2-(2-fluorophenyl)-8-isobutyl-8-methyl-1,6-naphthyridin-7(8H)-one] | 14.3 |  | 
C=CC(=O)N1C[C@H](C)N(C2=NC(=O)C3(CCc4ccccc43)c3nc(-c4ccccc4F)c(Cl)cc32)C[C@H]1C (single isomer, unassigned) [Example 1-7-1] | 5.28 | 1.72 | 
C=CC(=O)N1C[C@H](C)N(C2=NC(=O)C(C)(C3CCC3)c3nc(-c4ccccc4F)c(Cl)cc32)C[C@H]1C (single isomer, unassigned) [Example 1-3-1] | 201 |  | 
C=CC(=O)N1C[C@H](C)N(C2=NC(=O)C(C)(c3ccccc3)c3nc(-c4ccccc4F)c(Cl)cc32)C[C@H]1C (stereo partly drawn) [Example 1-5, 5-((2S,5R)-4-Acryloyl-2,5-dimethylpiperazin-1-yl)-3-chloro-2-(2-fluorophenyl)-8-methyl-8-phenyl-1,6-naphthyridin-7(8H)-one] | 25.9 |  | 
C=CC(=O)N1C[C@H](C)N(C2=NC(=O)C(C)(C3CCCC3)c3nc(-c4ccccc4F)c(Cl)cc32)C[C@H]1C (single isomer, unassigned) [Example 1-1-2] | 1.43 |  | 
C=CC(=O)N1C[C@H](C)N(C2=NC(=O)C3(Cc4ccccc4C3)c3nc(-c4ccccc4F)c(Cl)cc32)C[C@H]1C [Example 2-2, 5′-((2S,5R)-4-acryloyl-2,5-dimethylpiperazin-1-yl)-3′-chloro-2′-(2-fluorophenyl)-1,3-dihydro-7′H-spiro[indene-2,8′-[1,6]naphthyridin]-7′-one] | 3.37 |  | 1.77
C=CC(=O)N1C[C@H](C)N(C2=NC(=O)C(C)(c3ccccc3)c3nc(-c4ccccc4F)c(Cl)cc32)C[C@H]1C (single isomer, unassigned) [Example 1-5-1] | 186 |  | 
C=CC(=O)N1C[C@H](C)N(C2=NC(=O)C(C)(C3CCC3)c3nc(-c4ccccc4F)c(Cl)cc32)C[C@H]1C (single isomer, unassigned) [Example 1-3-2] | 0.55 |  | 0.35
C=CC(=O)N1C[C@H](C)N(C2=NC(=O)C(C)(CC)c3nc(-c4ccccc4F)c(Cl)cc32)C[C@H]1C (stereo partly drawn) [Example 1-4, 5-((2S,5R)-4-Acryloyl-2,5-dimethylpiperazin-1-yl)-3-chloro-8-ethyl-2-(2-fluorophenyl)-8-methyl-1,6-naphthyridin-7(8H)-one] | 19.3 |  | 
C=CC(=O)N1C[C@H](C)N(C2=NC(=O)C(C)(C3CCCC3)c3nc(-c4ccccc4F)c(Cl)cc32)C[C@H]1C (mixture of isomers) [Example 1-1, 5-((2S,5R)-4-Acryloyl-2,5-dimethylpiperazin-1-yl)-3-chloro-8-cyclopentyl-2-(2-fluorophenyl)-8-methyl-1,6-naphthyridin-7(8H)-one] | 2.68 |  | 
C=CC(=O)N1C[C@H](C)N(C2=NC(=O)C(C3CC3)(C3CC3)c3nc(-c4ccccc4F)c(Cl)cc32)C[C@H]1C [Example 2-1, 5-((2S,5R)-4-Acryloyl-2,5-dimethylpiperazin-1-yl)-3-chloro-8,8-dicyclopropyl-2-(2-fluorophenyl)-1,6-naphthyridin-7(8H)-one] | 18.6 |  | 
C=CC(=O)N1C[C@H](C)N(C2=NC(=O)C3(CCc4ccccc43)c3nc(-c4ccccc4F)c(Cl)cc32)C[C@H]1C (single isomer, unassigned) [Example 1-7-2] | 7.74 | 3.26 | 
C=CC(=O)N1C[C@H](C)N(C2=NC(=O)C(C)(C3CC3)c3nc(-c4ccccc4F)c(Cl)cc32)C[C@H]1C (single isomer, unassigned) [Example 1-2-1] | 5.15 | 1.45 | 
C=CC(=O)N1C[C@H](C)N(C2=NC(=O)C(C)(c3ccccc3)c3nc(-c4ccccc4F)c(Cl)cc32)C[C@H]1C (single isomer, unassigned) [Example 1-5-2] | 14.9 |  | 
C=CC(=O)N1CCN(C2=NC(=O)C(C)(CC(C)C)c3nc(-c4ccccc4F)c(Cl)cc32)[C@@H](C)C1 (single isomer, unassigned) [Example 3-1-2] | 13.3 |  | 1.77
C=CC(=O)N1C[C@H](C)N(C2=NC(=O)C(C)(CC(C)C)c3nc(-c4ccccc4F)c(Cl)cc32)C[C@H]1C (single isomer, unassigned) [Example 1-8-2] | 4.95 | 1.62 | 
C=CC(=O)N1C[C@H](C)N(C2=NC(=O)C(C)(CC(C)C)c3nc(-c4ccccc4F)c(Cl)cc32)C[C@H]1C (single isomer, unassigned) [Example 1-8-1] | 53.8 |  | 
C=CC(=O)N1C[C@H](C)N(C2=NC(=O)C(C)(C3CCCC3)c3nc(-c4ccccc4F)c(Cl)cc32)C[C@H]1C (single isomer, unassigned) [Example 1-1-1] | 250 |  | 
C=CC(=O)N1C[C@H](C)N(C2=NC(=O)C(C)(CC)c3nc(-c4ccccc4F)c(Cl)cc32)C[C@H]1C (single isomer, unassigned) [Example 1-4-1] | 11.2 |  | 2.74
C=CC(=O)N1C[C@H](C)N(C2=NC(=O)C3(CCc4ccccc43)c3nc(-c4ccccc4F)c(Cl)cc32)C[C@H]1C (stereo partly drawn) [Example 1-7, 5′-((2S,5R)-4-Acryloyl-2,5-dimethylpiperazin-1-yl)-3′-chloro-2′-(2-fluorophenyl)-2,3-dihdyro-7′H-spiro[indene-1,8′-[1,6]naphthyridin]-7′-one] | 8.04 |  | 1.76
C=CC(=O)N1C[C@H](C)N(C2=NC(=O)C(C)(C3CC3)c3nc(-c4ccccc4F)c(Cl)cc32)C[C@H]1C (single isomer, unassigned) [Example 1-2-2] | >250 |  | 
C=CC(=O)N1C[C@H](C)N(C2=NC(=O)C(C)(C3CCC3)c3nc(-c4ccccc4F)c(Cl)cc32)C[C@H]1C (stereo partly drawn) [Example 1-3, 5-((2S,5R)-4-Acryloyl-2,5-dimethylpiperazin-1-yl)-3-chloro-8-cyclobutyl-2-(2-fluorophenyl)-8-methyl-1,6-naphthyridin-7(8H)-one] | 1.69 |  | 0.95
C=CC(=O)N1CCN(C2=NC(=O)C(C)(CC(C)C)c3nc(-c4ccccc4F)c(Cl)cc32)[C@@H](C)C1 (single isomer, unassigned) [Example 3-1-1] | 94.7 |  | 
C=CC(=O)N1C[C@H](C)N(C2=NC(=O)C(C)(CC(C)C)c3nc(-c4ccccc4F)c(Cl)cc32)C[C@H]1C (stereo partly drawn) [Example 1-8, 5-((2S,5R)-4-Acryloyl-2,5-dimethylpiperazin-1-yl)-3-chloro-2-(2-fluorophenyl)-8-isobutyl-8-methyl-1,6-naphthyridin-7(8H)-one] | 5.78 | 3.69 | 
C=CC(=O)N1C[C@H](C)N(C2=NC(=O)C(C)(C3CC3)c3nc(-c4ccccc4F)c(Cl)cc32)C[C@H]1C (stereo partly drawn) [Example 1-2, 5-((2S,5R)-4-Acryloyl-2,5-dimethylpiperazin-1-yl)-3-chloro-8-cyclopropyl-2-(2-fluorophenyl)-8-methyl-1,6-naphthyridin-7(8H)-one] | 20.1 |  | 1.63
C=CC(=O)N1C[C@H](C)N(C2=NC(=O)C3(CCCCC3)c3nc(-c4ccccc4F)c(Cl)cc32)C[C@H]1C [Example 1-6, 5′-((2S,5R)-4-Acryloyl-2,5-dimethylpiperazin-1-yl)-3′-chloro-2′-(2-fluorophenyl)-7′H-spiro[cyclohexane-1,8′-[16,]naphthyridin]-7′-one] | 7.28 |  | 3.31
C=CC(=O)N1C[C@H](C)N(C2=NC(=O)C(C)(CC)c3nc(-c4ccccc4F)c(Cl)cc32)C[C@H]1C (single isomer, unassigned) [Example 1-4-2] | 139 |  | 
